Common to all, as to assay type: cell-based, human
Assay [1] deals with memory CD45RO+CD25−CCR6+CD4+ T cells. Nature of the assay: IL-17 production in sorted adult blood memory CD4+ T cells cultured with or without IL-1β in serum-containing media (intracellular staining). The following applies: day 6. As to the method:
(§1) Blood samples were obtained from the New York Blood Center. Mononuclear cells were prepared from buffy coats of healthy adult donors or from cord blood on FicollPAQUE gradients. CD4^+ T cells were isolated on an autoMACS Pro using Miltenyi bead depletion of CD14^+ and CD25^+ cells followed by positive selection of CD4^+ cells. Cord blood CD4^+ T cells were >97% pure and 100% CD45RA^+ and were used as such for initial transduction experiments. Adult CD4^+ T cell subsets and naive cord blood CD4^+ T cells were further purified respectively as CD3^+CD4^+CD25^−CD45RO^−/+ and CD3^+CD4^+CD25^−HLA-DR^−CD45RA^+ by cell sorting on a FACSAria.
(§2) Cells were cultivated in either RPMI1640 (Invitrogen) supplemented with 10% fetal bovine serum (Hyclone), penicillin-streptomycin, 2 mM glutamine, 10 mM HEPES, 1 mM pyruvate and 0.1 mM non-essential amino acids or serum-free XVIVO-20 (Lonza) supplemented with penicillin-streptomycin in a 37° C. 5% CO2 incubator. […]
(§3) For intracellular cytokine staining, cells were incubated for 5 hours with 50 ng/ml PMA (Sigma), 500 ng/ml Ionomycin (Sigma), and GolgiStop (BD). […] Flow cytometric measures were performed on a LSR II (BD Biosciences) instrument and analyzed using FlowJo software (Tree Star Inc.). […]

Assay [2] has as its system naive CD45RO−CD25−CCR7+ T cells. Nature of the assay: IL-17 production in sorted adult blood naive CD4+ T cells cultured with or without IL-1β in serum-containing media (intracellular staining). The following applies: day 6. The method, then:
as §1, §2, §3

Assay [3] deals with Cord blood CD4+ T cells transduced with RORγT. Nature of the assay: IL-17 and FOXP3 expression following RORγT transduction of cord blood CD4+ T cells (intracellular staining). The following applies: for effect on the suppression of IL-17 production induced by TGF-β: RORγT-transduced cells, with TGF-β; for increase of the proportion of IL-17-producing cells after forced expression of RORγT: cytokine 10 ng/ml.

Assay [4] relates to Naive cord blood CD4+ T cells. Kind of assay: Th17 cell polarization of naive cord blood CD4+ T cells in serum-free media (intracellular and surface staining: IL-17, IL-22, FOXP3, CCR6). The following applies: for suppression of TGF-β-induced FOXP3 expression: added to TGF-β. As to the method: Blood samples were obtained from the New York Blood Center. Mononuclear cells were prepared from buffy coats of healthy adult donors or from cord blood on FicollPAQUE gradients. CD4^+ T cells were isolated on an autoMACS Pro using Miltenyi bead depletion of CD14^+ and CD25^+ cells followed by positive selection of CD4^+ cells. […] Adult CD4^+ T cell subsets and naive cord blood CD4^+ T cells were further purified respectively as CD3^+CD4^+CD25^−CD45RO^−/+ and CD3^+CD4^+CD25^−HLA-DR^−CD45RA^+ by cell sorting on a FACSAria.
(§4) Cells were cultivated in either RPMI1640 (Invitrogen) supplemented with 10% fetal bovine serum (Hyclone), penicillin-streptomycin, 2 mM glutamine, 10 mM HEPES, 1 mM pyruvate and 0.1 mM non-essential amino acids or serum-free XVIVO-20 (Lonza) supplemented with penicillin-streptomycin in a 37° C. 5% CO2 incubator. CD4^+ T cells were stimulated by addition of anti-mouse IgG magnetic beads (Pierce) previously coated with purified anti-CD3 and anti-CD28 at final concentrations of 1 bead/cell and 1 μg/ml of each antibody. […] Lentiviral supernatants were added at an MOI ranging from 1 to 10. […] For the shRNA experiment, puromycin was added at day 2 at 2 μg/ml. For polarization experiments, cells were seeded at a concentration of 5×10^5 to 10^6 cells/ml in U-bottom 96 well plates with anti-CD3/CD28 coated beads. […] For long-term experiments, cells were split as needed. […] Cells were harvested at day 6 for intracellular staining and real-time PCR analysis except where specified otherwise.
For intracellular cytokine staining, cells were incubated for 5 hours with 50 ng/ml PMA (Sigma), 500 ng/ml Ionomycin (Sigma), and GolgiStop (BD). Surface staining was performed by incubation with the corresponding fluorescently labeled antibodies for 15 min on ice. Intracellular staining was performed using the Cytofix/Cytoperm buffer set (BD). Briefly, cells were fixed and permeabilized for 30 min at room temperature and stained in permeabilization buffer for 30 min at room temperature. Flow cytometric measures were performed on a LSR II (BD Biosciences) instrument and analyzed using FlowJo software (Tree Star Inc.). Antibodies are detailed in Table 1. FOXP3 was stained using FOXP3 staining buffers (eBioscience). The present inventors used the FJK-16s antibody, which was originally reported as an anti-mouse/rat FoxP3 antibody.

Assay [5] concerns Naive cord blood CD4+ T cells. Kind of assay: mRNA levels of Th17 markers (IL17, IL26, IL17F, RORC, RORA, IL23R) during Th17 cell differentiation of naive cord blood CD4+ T cells (real-time PCR). To be noted: day 6; for IL-17F expression / IL-23R expression: cytokine alone (with IL-2). As to the method:
as §1, §4
(§5) RNA was extracted by TRIZOL (Invitrogen) and cDNA was synthesized with Superscript II (Invitrogen) and random primers. cDNA was analyzed by real-time quantitative PCR in triplicates by using iQ CYBR Green Supermix (Bio-Rad) or QuantiTect Multiplex PCR mix (Qiagen) in the iCycler Sequence Detection System (Bio-Rad). The starting quantity (SQ) of the initial cDNA sample was calculated from primer-specific standard curves by using the iCycler Data Analysis Software. The expression level of each gene was normalized to beta-actin expression level using the standard curve method. Fold changes were calculated by normalizing to the first sample of each set. Error bars were calculated based on triplicate measurements of each gene. The primer sets for real-time PCR are detailed in Table 2.
A general note: Quantitative PCR measures a nucleic acid by following its amplification.

The test system of a further assay is RORC. Nature of the assay: RORC expression in CD45RO− adult naive CD4+ T cells cultivated with cytokines (real-time PCR). To be noted: cytokine alone. The method, then:
as §1, with “FACSAria. […]” for “FACSAria.”
as §5, with “The expression level of each gene was normalized to beta-actin expression level using the standard curve method.” left out, “The primer sets for real-time PCR are detailed in Table 2.” left out

Setting [6] is: increasing concentration of TGF-β, day 6.

In the case of “IL-1β: cytokine, 10 ng/ml IL-1β (eBioscience)”, the “increase of IL-17 production” value in assay [1] was “two-fold”. In assay [2], the “effect on IL-17 production” value was “no effect”. Moreover, in assay [3], the “effect on the suppression of IL-17 production induced by TGF-β” value was “partially relieved”. In addition, the “increase of the proportion of IL-17-producing cells after forced expression of RORγT” value in assay [3] (day 6) is on record as “about two-fold”. For the same molecule, in assay [4] (day 6), the “suppression of TGF-β-induced FOXP3 expression” value is “not”. Further, in assay [5], the IL-17F expression entry was “Some expression” and the IL-23R expression entry is reported as “not”.

As to “IL-6: cytokine, 10 ng/ml IL-6 (eBioscience)”, in assay [3], the “effect on the suppression of IL-17 production induced by TGF-β” value is listed as “partially relieved”. In assay [3] (day 6), the “increase of the proportion of IL-17-producing cells after forced expression of RORγT” value is listed as “about two-fold”. Further, the “suppression of TGF-β-induced FOXP3 expression” value in assay [4] (day 6) is recorded as “able to inhibit”. The “induction of IL-17” value is “active, albeit not as strongly as IL-23” in assay [4] (both IL-1β and TGF-β included, day 6); “failed to induce” in assay [4] (combined with TGF-β alone).

On to TGF-β: cytokine, TGF-β1 (PeproTech), for which, in assay [3] (various concentrations of TGF-β, day 6), the “effect on IL-17 production after forced expression of RORγT” value is reported as “potently suppressed”. In the assay with RORC, the “RORγT (RORC) expression” value is listed as “induced dose-dependent RORγT expression”. For the same molecule, in assay [4] (TGF-β alone, day 6), the “CCR6 cell surface expression” value is reported as “induced”. Moreover, in assay [4] (setting [6]), the FOXP3 expression result is “induced” and the IL-22 expression result was “progressively inhibited”. Moreover, in assay [5], the RORA expression entry is on record as “slightly induced” and the “levels of IL-26 mRNA” value is given as “increased with the dose”. The RORC expression entry in assay [5] (increasing concentrations of TGF-β) is given as “gradually induced”.

Consider “soluble IL-21R: neutralizing soluble IL-21R (R&D) [reference compound]”, for which the “effect on IL-17 expression” value in assay [4] (IL-23+IL-1β+IL-2+TGF-β, at levels that inhibited STAT3 phosphorylation, day 6) was “no effect”.

B1: IL-23: cytokine, 10 ng/ml IL-23 (eBioscience) (protein, UniProt Q9NPF7 20-189; P29460 23-328, looked up)
Interleukin-23 subunit alpha: RAVPGGSSPAWTQCQQLSQKLCTLAWSAHPLVGHMDLREEGDEETTNDVPHIQCGDGCDPQGLRDNSQFCLQRIHQGLIFYEKLLGSDIFTGEPSLLPDSPVGQLHASLLGLSQLLQPEGHHWETQQIPSLSPSQPWQRLLLRFKILRSLQAFVAVAARVFAHGAATLSP
Interleukin-12 subunit beta: IWELKKDVYVVELDWYPDAPGEMVVLTCDTPEEDGITWTLDQSSEVLGSGKTLTIQVKEFGDAGQYTCHKGGEVLSHSLLLLHKKEDGIWSTDILKDQKEPKNKTFLRCEAKNYSGRFTCWWLTTISTDLTFSVKSSRGSSDPQGVTCGAATLSAERVRGDNKEYEYSVECQEDSACPAAEESLPIEVMVDAVHKLKYENYTSSFFIRDIIKPDPPKNLQLKPLKNSRQVEVSWEYPDTWSTPHSYFSLTFCVQVQGKSKREKKDRVFTDKTSATVICRKNASISVRAQDRYYSSSWSEWASVPCS
For the molecule B1, in assay [4] (day 6), the “suppression of TGF-β-induced FOXP3 expression” value is recorded as “able to suppress”. In addition, in assay [5], the IL-17F expression entry is “no effect” and the IL-23R expression result is “induced to some extent”.

The values above are taken from US9498495B2, “Methods for in vitro differentiation of TH-17+ cells” (New York University, priority 2008, dated 2016).
